In patent publication US20120094894A1, “ANTIDIABETIC MEDICATIONS COMPRISING A DPP-4 INHIBITOR (LINAGLIPTIN) OPTIONALLY IN COMBINATION WITH OTHER ANTIDIABETICS” (BOEHRINGER INGELHEIM INTERNATIONAL GMBH, priority 2009, published 2012):

How the values were obtained:
DIO mice [1] = assay: Liver fat content by magnetic resonance spectroscopy (MRS) in diet-induced obesity model; type: in vivo
Source text: Hepatic steatosis is a hallmark of patients with type 2 diabetes and underlies the pathogenesis of non-alcoholic fatty liver disease (NAFLD). Linagliptin is a selective and non-renal excreted inhibitor of dipeptidyl peptidase-4 (DPP-4). […]. Liver lipid content is detected by magnetic resonance spectroscopy (MRS) in vivo and ex vivo by analysis of liver triglycerides. […]. […] A significant reduction of liver fat content (MRS) is visible as early as 2 weeks on treatment. The correlation between liver lipid content as measured by MRS and hepatic triglyceride levels as measured ex vivo is r2=0.565 (p<0.0001).

ob/ob mice [2] = assay: Blinded histological scoring of liver (fat content, markers of inflammation) in ob/ob mice; details: 3 mg/kg/d, 14 d, n=9, p<0.01 vs. control 3±0.18
DIO mice [3] = assay: Blood glucose following OGTT (AUC) in diet-induced obesity model; type: in vivo; details: 4 weeks, p<0.01
ob/ob mice [4] = assay: Blood glucose AUC in ob/ob mice after 14 d linagliptin; details: 3 mg/kg/d
[5] = metformin on its own, in the diabetic; cited from earlier work

Row | Compound | Time on treatment at which significant reduction of liver fat content (MRS) is visible (DIO mice [1]; DIO mice) | Liver fat content (MRS detection) (DIO mice [1]; DIO mice fed 2 or 3 months, 30 mg/kg/d, and 3 mg/kg/d in 3 month fed mice, 4 weeks) | Histological score (hepatic steatosis and inflammation) (ob/ob mice [2]) | Blood glucose levels following an OGTT (AUC) suppressed (DIO mice [3]; 3 mg/kg/d) | Blood glucose levels following an OGTT (AUC) suppressed (DIO mice [3]; 30 mg/kg/d) | Blood glucose AUC reduction (ob/ob mice [4]) | Average improvement in the HbA1c value [5]
1 | CC#CCn1c(N2CCC[C@@H](N)C2)nc2c1c(=O)n(Cc1nc(C)c3ccccc3n1)c(=O)n2C [linagliptin, 1-[(4-methyl-quinazolin-2-yl)methyl]-3-methyl-7-(2-butyn-1-yl)-8-(3-(R)-amino-piperidin-1-yl)-xanthine] | 2 weeks | reduced significantly | 2.2±0.13 | 16%-20% | 20%-26% | 25% | –
2 | CN(C)C(=N)N=C(N)N [metformin] | – | – | – | – | – | – | 1.0-1.5%
